Values joined by “and” are separate entries in the source; they are usually repeats but may differ in a detail not shown here. Identical values can stand only once.
Experiments:
Assay type in all cases: in vivo, human
[1] = test system: patients with relapsed/refractory (r/r) B- and T-cell lymphoma; assay: Phase 2 study of cerdulatinib 30 mg BID in relapsed/refractory B- and T-cell lymphoma (Example 2)
Experimental: This study intended to confirm the safety and efficacy of cerdulatinib dosed 30 mg orally BID in patients with relapsed/refractory (r/r) B- and T-cell lymphoma. Dose reductions were permitted to a minimum of 15 mg BID. Response was assessed by Lugano Classification criteria.
Ninety nine patients enrolled (FL: 36, CLL/SLL: 28, PTCL: 18, marginal zone lymphoma: 8, aggressive: 5, Waldenstrom's macroglobulinemia: 4) (Table 4). Median age is 68 (42-93) and median # of prior therapies is 3 (1-13) (Table 5). 30 patients had prior BTK, PI3K or BCL-2 inhibitor therapy. The most common AEs of any grade are diarrhea (42%), fatigue (36%), and nausea (32%). Grade 3+ AEs occurring in ≥5% patients are neutropenia (18%), lipase increase (15%), pneumonia (12%), diarrhea (10%), and fatigue (7%). 5 patients have had Grade 5 infections considered related to study drug (3 of 5 in the CLL cohort). The target PK range has been achieved with an average SSCmin of ˜0.8 μM.

[2] = Cerdulatinib plasma concentration in patients (LC-MS/MS)
Experimental: Blood samples were collected on K2EDTA for the determination of total cerdulatinib plasma concentrations on day 1 prior to dosing and at 0.5, 1, 2, 3, 4, 6, 8, and 12 hours post-dose; on Day 8 at pre-dose and 2 hours post-dose; on Day 15 pre-dose; and on Day 28 (end of the first treatment cycle) at pre-dose and at 0.5, 1, 2, 3, 4, 6, 8, and 12 hours post-dose. A liquid chromatography-tandem mass spectrometry (LC-MS/MS) method was developed and validated by Alturas Analytics, Inc. (Moscow, Id.) for the determination of cerdulatinib concentration in human plasma. […] J Pharmacol Exp Ther, 2014. 351(3): p. 538-48. Chromatographic separations were performed over a Phenomenex Synergi Polar-RP column (50×2.0 mm, 4 μm) (Phenomenex, Torrance, Calif., USA). MS/MS analysis was performed using a Sciex API-4000 triple quadrupole mass spectrometer with a TurboSpray ion source (Applied Biosystems, Foster City, Calif., USA). The peak area of the m/z 394→360 cerdulatinib product ion was measured against the peak area of the m/z 397→363 internal standard product ion. Intra-assay precision (% CV) and accuracy (% bias) were within 0.8% to 4.5% and −10.1% to 7.8%, respectively, and inter-assay precision (% CV) and accuracy (% bias) were 2.0% to 3.8% and −7.3% to 6.0%, respectively.

[3] = test system: patients with relapsed/refractory Follicular Lymphoma; assay: Phase 2a dose expansion study in relapsed/refractory follicular lymphoma, single agent and with rituximab
Experimental: Methods: This is a phase 2a dose expansion study was carried out with cerdulatinib dosed 30 mg orally BID in patients with relapsed/refractory (r/r) B cell lymphoma. Dose reductions were permitted to a minimum of 15 mg BID. Responses of patients to the cerdulatinib treatment and cerdulatinib rituximab combination treatment were assessed by Lugano Classification criteria.
A total of 40 patients were enrolled in the single arm, cerdulatinib treatment cohort and 11 patients were enrolled in the cerdulatinib rituximab combination cohort. Median age was 64 (42-81) and median number of prior therapies was three (1-8). 50 (98%) patients had prior anti-CD20 therapy and 8 (16%) patients had prior PI3K or BTK inhibitors. The most common adverse effects (AEs) of any grade were diarrhea (47%), nausea (37%), lipase increase (29%) and amylase increase (22%). Grade 3+ AEs occurring in more than 5% patients are lipase increase (24%), diarrhea (12%), amylase increase (10%), nausea (8%), hypertension (8%), and neutropenia (6%). Grade 3+ infections occurred in 6 (12%) of patients. One patient had Grade 5 multi-organ failure potentially related to study drug. Amylase and lipase elevations generally were not associated with abdominal pain or pancreatitis. The safety profile in the combination cohort appeared to be similar to what is seen with single-agent cerdulatinib.

[4] = single arm cohort, out of 40 patients

SMILES: CCS(=O)(=O)N1CCN(c2ccc(Nc3ncc(C(N)=O)c(NC4CC4)n3)cc2)CC1 [cerdulatinib, 4-(cyclopropylamino)-2-((4-(4-(ethylsulfonyl)piperazin-1-yl)phenyl)amino)pyrimidine-5-carboxamide]
- duration of durable PR ([1]; CLL patient relapsed on BTK inhibitor): ≥ 5 months
- CR (%) ([1]; CLL/SLL): (4) %
- CR, number of patients ([1]; CLL/SLL): 1
- PD (%) ([1]; CLL/SLL): (4) %
- PD, number of patients ([1]; CLL/SLL): 1
- PR (%) ([1]; CLL/SLL): (57) %
- PR, number of patients ([1]; CLL/SLL): 16
- ORR ([1]; CLL/SLL, N 28): 61%
- CR, number of patients ([1]; DLBCL, tFL, and MCL): 0
- PD (%) ([1]; DLBCL, tFL, and MCL): 60%
- PD, number of patients ([1]; DLBCL, tFL, and MCL): 3
- PR (%) ([1]; DLBCL, tFL, and MCL): 20%
- PR, number of patients ([1]; DLBCL, tFL, and MCL): 1
- ORR ([1]; DLBCL, tFL, and MCL, N 5): 20%
- CR (%) ([1]; FL): (10) %
- CR, number of patients ([1]; FL): 3
- PD (%) ([1]; FL): (10) %
- PD, number of patients ([1]; FL): 3
- PR (%) ([1]; FL): (39) %
- PR, number of patients ([1]; FL): 12
- duration of durable PR ([1]; FL patient relapsed on BTK inhibitor): 12 months
- ORR ([1]; FL, N 31): 49%
- CR, number of patients ([1]; Other Indolent Lymphoma): 0
- PD (%) ([1]; Other Indolent Lymphoma): 33%
- PD, number of patients ([1]; Other Indolent Lymphoma): 4
- PR (%) ([1]; Other Indolent Lymphoma): 42%
- PR, number of patients ([1]; Other Indolent Lymphoma): 5
- ORR ([1]; Other Indolent Lymphoma, N 12): 42%
- CR (%) ([1]; PTCL): 33%
- PD (%) ([1]; PTCL): 33%
- PD, number of patients ([1]; PTCL): 5
- PR (%) ([1]; PTCL): 13%
- PR, number of patients ([1]; PTCL): 2
- study drug-related Serious Adverse Events (SAEs), number ([1]; PTCL (n=16), Grade 3 to 4): 4
- duration of durable PR ([1]; PTCL patient relapsed on tenalisib): ≥ 3 months
- AEs of any grade: diarrhea ([1]; PTCL patients): 33%
- AEs of any grade: fatigue ([1]; PTCL patients): 22%
- AEs of any grade: lipase increase ([1]; PTCL patients): 17%
- AEs of any grade: nausea ([1]; PTCL patients): 17%
- Grade 3+ AEs: diarrhea, number of patients ([1]; PTCL patients): 3
- Grade 3+ AEs: lipase increase, number of patients ([1]; PTCL patients): 2
- Grade 3+ AEs: neutropenia, number of patients ([1]; PTCL patients): 4
- Grade 3+ AEs: pneumonia, number of patients ([1]; PTCL patients): 2
- deaths or discontinuations due to Treatment Emergent Adverse Events ([1]; PTCL patients (n=16)): no deaths or discontinuations
- CR, number of patients ([1]; PTCL, 15 evaluable): 5
- ORR ([1]; PTCL, N 15, 30 mg BID): 47%
- duration of durable PR ([1]; SLL patient relapsed on venetoclax): ≥ 18 months
- duration of durable PR ([1]; WM patient relapsed on BTK inhibitor): ≥ 7 months
- AEs of any grade: diarrhea ([1]; all 99 patients): 42%
- AEs of any grade: fatigue ([1]; all 99 patients): 36%
- AEs of any grade: nausea ([1]; all 99 patients): 32%
- Grade 3+ AEs: diarrhea ([1]; all 99 patients): 10%
- Grade 3+ AEs: fatigue ([1]; all 99 patients): 7%
- Grade 3+ AEs: lipase increase ([1]; all 99 patients): 15%
- Grade 3+ AEs: neutropenia ([1]; all 99 patients): 18%
- Grade 3+ AEs: pneumonia ([1]; all 99 patients): 12%
- patients with Grade 5 infections considered related to study drug ([1]; all 99 patients, 3 of 5 in the CLL cohort): 5 patients
- time on treatment of PTCL patients with CR still on drug ([1]; first (two) responding PTCL patients): 11 months and 12 months and 8 months
- response durations ([1]; first two PTCL patients achieving a response (both CRs)): 10 months and 6 months
- Toxicities ≥ Grade 3: Asthenia/Fatigue ([1]; r/r PTCL, N = 16): 6.3%
- Toxicities ≥ Grade 3: Diarrhea/Colitis ([1]; r/r PTCL, N = 16): 6.3%
- Toxicities ≥ Grade 3: Infection ([1]; r/r PTCL, N = 16): 18.8%
- Toxicities ≥ Grade 3: Neutropenia ([1]; r/r PTCL, N = 16): 6.3%
- SSCmin achieved ([2]; CLL/SLL patients, lower dose cohorts): 0.004 to 0.325 µM
- SSCmin exposures at which tumor responses were more apparent ([2]; FL patients): 0.729 to 1.219 µM
- SSCmin to SSCmax cerdulatinib serum concentrations ([2]; human, in vivo): 0.32 to 0.38 µM
- SSCmin that was well tolerated ([2]; phase 1 dose-escalation): up to 1 μM
- average SSCmin ([2]; phase 2 dose 30 mg BID): ~0.8 µM
- AEs of any grade: amylase increase ([3]; r/r FL, both cohorts together): 22%
- AEs of any grade: lipase increase ([3]; r/r FL, both cohorts together): 29%
- AEs of any grade: nausea ([3]; r/r FL, both cohorts together): 37%
- Grade 3+ AEs: amylase increase ([3]; r/r FL, both cohorts together): 10%
- Grade 3+ AEs: diarrhea ([3]; r/r FL, both cohorts together): 12%
- Grade 3+ AEs: hypertension ([3]; r/r FL, both cohorts together): 8%
- Grade 3+ AEs: lipase increase ([3]; r/r FL, both cohorts together): 24%
- Grade 3+ AEs: nausea ([3]; r/r FL, both cohorts together): 8%
- Grade 3+ AEs: neutropenia ([3]; r/r FL, both cohorts together): 6%
- Grade 3+ infections ([3]; r/r FL, both cohorts together): 12%
- patients with Grade 5 multi-organ failure potentially related to study drug ([3]; r/r FL, both cohorts together): One
- AEs of any grade: diarrhea ([3]; r/r FL, single-agent and rituximab combination cohorts together): 47%
- ORR ([3]; single arm cohort, 40 patients): 46%
- CRs, number of patients [3, 4]: 5
- PRs, number of patients [3, 4]: 13

From patent publication US11266645B2, “Methods for treating lymphoma” (Alexion Pharmaceuticals, Inc., priority 2018, dated 2022)
